Values after ≈ are worked out from the molar mass of the structure shown.
Legend:
Format in all cases: cell-based
[1] = tested on: Pseudomonas aeruginosa SG 137 (carbenicillin-resistant); assay: Agar diffusion test; conditions: concentration 100 μg/ml; P. aeruginosa SG 137
[2] = tested on: Pseudomonas aeruginosa KW 799 WT (wild type); assay: Agar diffusion test; conditions: concentration 100 μg/ml; P. aeruginosa KW799/WT
[3] = tested on: Pseudomonas aeruginosa KW 799/61 (penetration mutant); conditions: concentration 100 μg/ml; P. aeruginosa KW799/61
[4] = tested on: Pseudomonas aeruginosa ATCC 27853 (wild type); assay: Agar diffusion test; conditions: concentration 100 μg/ml; P. aeruginosa ATCC 27853
[5] = tested on: Pseudomonas aeruginosa ATCC 9027 (wild type); assay: Agar diffusion test; conditions: concentration 100 μg/ml; P. aeruginosa ATCC 9027
[6] = tested on: Pseudomonas aeruginosa NCTC 10662; assay: Agar diffusion test; conditions: concentration 100 μg/ml; P. aeruginosa NCTC 10662
[7] = tested on: Pseudomonas aeruginosa NCTC 10701; assay: Agar diffusion test; conditions: concentration 100 μg/ml; P. aeruginosa NCTC 10701
[8] = tested on: Pseudomonas aeruginosa NPS1 (plasmid-coded β-lactamase); conditions: concentration 100 μg/ml; P. aeruginosa NPS 1
[9] = tested on: Pseudomonas aeruginosa Oxa6 (plasmid-coded β-lactamase); conditions: concentration 100 μg/ml; P. aeruginosa OXA 6
[10] = tested on: E. coli DC2 (penetration mutant); conditions: concentration 100 μg/ml
[11] = tested on: E. coli DC0 (wild type); assay: Agar diffusion test; conditions: concentration 100 μg/ml
[12] = tested on: Klebsiella pneumoniae ATCC 10031; assay: Agar diffusion test; conditions: concentration 100 μg/ml
[13] = tested on: Klebsiella pneumoniae SG 117; assay: Agar diffusion test; conditions: concentration 100 μg/ml
[14] = tested on: Stenotrophomonas maltophilia GN 12873; assay: Agar diffusion test; conditions: concentration 100 μg/ml
[15] = tested on: Stenotrophomonas maltophilia IMET 10402; assay: Agar diffusion test; conditions: concentration 100 μg/ml
[16] = tested on: Salmonella gallinarum ATCC 9184; conditions: concentration 100 μg/ml; Salmonella galinarum ATCC 9184
[17] = tested on: E. coli ATCC 25922; assay: Microdilution test (MIC); conditions: Escherichia coli, ATCC25922
Procedure: (§1) The minimum inhibiting concentrations (MICs) were determined for the following bacterial strains: Pseudomonas aeruginosa NCTC 10701, NCTC 10662, SG 137, ATCC 27853, KW 799 WT and KW 799/61, E. coli DCO, DC2 and ATCC 25922, Serratia marcescens SG 621; Salmonella gallinarum ATCC 9184, Klebsiella pneumoniae ATCC 10031 and SG 117.

[18] = tested on: Klebsiella pneumoniae ATCC 10031; assay: Microdilution test (MIC); conditions: ATCC10031
Procedure: as §1

[19] = tested on: Klebsiella pneumoniae SG 117; assay: Microdilution test (MIC); conditions: SG117
Procedure: as §1

[20] = tested on: Pseudomonas aeruginosa ATCC 27853; assay: Microdilution test (MIC); conditions: Pseudomonas aeruginosa, ATCC27853; P. aeruginosa ATCC 27853
Procedure: as §1

[21] = tested on: Pseudomonas aeruginosa NCTC 10662; assay: Microdilution test (MIC); conditions: Pseudomonas aeruginosa, NCTC10662; P. aeruginosa NCTC 10662
Procedure: as §1

[22] = tested on: Pseudomonas aeruginosa NCTC 10701; assay: Microdilution test (MIC); conditions: Pseudomonas aeruginosa, NCTC10701; P. aeruginosa NCTC 10701
Procedure: as §1

[23] = tested on: Pseudomonas aeruginosa SG 137; assay: Microdilution test (MIC); conditions: Pseudomonas aeruginosa, SG137; P. aeruginosa SG 137
Procedure: as §1

[24] = tested on: Serratia marcescens SG 621; assay: Microdilution test (MIC); conditions: SG621
Procedure: as §1

[25] = tested on: E. coli DC0; assay: Microdilution test (MIC); conditions: Escherichia coli, DC0, read-out: MIC values, microdilution test
How it was run: (§2)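 Broth microdilution MIC determination; paired strains (Pseudomonas KW 799 WT vs /61, E. coli DC0 vs DC2) used to assess the effect of improved penetration capacity on compound efficacy.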

[26] = tested on: Pseudomonas aeruginosa KW 799 WT; assay: Microdilution test (MIC); conditions: Pseudomonas aeruginosa, KW799WT; P. aeruginosa KW 799/WT
How it was run: as §2

[27] = tested on: Pseudomonas aeruginosa KW 799/61; assay: Microdilution test (MIC); conditions: Pseudomonas aeruginosa, KW799/61; P. aeruginosa KW 799/61
How it was run: as §2

[28] = tested on: E. coli DC2; assay: microbe, parasite or virus in culture; conditions: Escherichia coli, read-out: MIC values, microdilution test
How it was run: as §2

[29] = tested on: Salmonella gallinarum ATCC 9184; assay: microbe, parasite or virus in culture; conditions: Salmonella enterica; Salmonella gallinarum ATCC9184; read-out: MIC values, microdilution test
Procedure: as §1

[30] = tested on: Stenotrophomonas maltophilia GN 12873; assay: Microdilution test (MIC); conditions: GN12873
[31] = tested on: E. coli mutant KB4 ompF−
Excerpt: (§3) The efficacy against β-lactamase formers and against multi-resistant germs is therefore due to a new type of mechanism for overcoming the penetration resistance, by means of which the ratio of active ingredient to enzyme in the bacterial cell is influenced so that not all antibiotic molecules are inactivated before they reach their target.

[32] = tested on: E. coli mutant KB5 ompC−
Excerpt: as §3

[33] = tested on: E. coli mutant PLB3268 ompF++; conditions: E. coli mutant PLB3268 ompF++ (ompF super-expressed)
Excerpt: as §3
PLB268: ompF- was super-expressed.

[34] = tested on: E. coli mutant BR185 tonB−
[35] = tested on: E. coli AB2847 tonB+

In the case of `CC1(C)S[C@@H]2[C@H](NC(=O)[C@H](NC(=O)N3CCNC3=O)c3ccccc3)C(=O)N2[C@H]1C(=O)O` [Azlocillin, reference compound], the “inhibition spot diameter in the agar diffusion test” value [1] is reported as 17 mm, the “inhibition spot diameter in the agar diffusion test” value [2] is reported as 27 mm and the “inhibition spot diameter in the agar diffusion test” value [3] is reported as 40 mm. The “inhibition spot diameter in the agar diffusion test” value [4] was 19 mm, the “inhibition spot diameter in the agar diffusion test” value [5] was 15 mm and the “inhibition spot diameter in the agar diffusion test” value [6] was 17 mm. For the same compound, the “inhibition spot diameter in the agar diffusion test” value [7] was 27 mm, the “inhibition spot diameter in the agar diffusion test” value [8] was 0 mm and the “inhibition spot diameter in the agar diffusion test” value [9] was 0 mm. The “inhibition spot diameter in the agar diffusion test” value [10] was 33 mm, the “inhibition spot diameter in the agar diffusion test” value [11] was 16 mm and the “inhibition spot diameter in the agar diffusion test” value [12] was 15 mm. For the same compound, the “inhibition spot diameter in the agar diffusion test” value [13] was 18 mm, the “inhibition spot diameter in the agar diffusion test” value [14] was 0 mm and the “inhibition spot diameter in the agar diffusion test” value [15] was 21 mm. For the same compound, the “inhibition spot diameter in the agar diffusion test” value [16] was 21 mm, the MIC [17] was 6.25 µg/mL (≈ 13.5 µM) and the MIC [18] was 6.25 µg/mL (≈ 13.5 µM). The MIC [19] was 6.25 µg/mL (≈ 13.5 µM), the MIC [20] was 6.25 µg/mL (≈ 13.5 µM) and the MIC [21] was 6.25 µg/mL (≈ 13.5 µM). The MIC [22] was 0.2 µg/mL (≈ 0.433 µM), the MIC [23] was 6.25 µg/mL (≈ 13.5 µM) and the MIC [24] was 50 µg/mL (≈ 108 µM). The MIC [25] was 12.5 µg/mL (≈ 27.1 µM), the MIC [26] was 3.12 µg/mL (≈ 6.76 µM) and the MIC [27] was 0.2 µg/mL (≈ 0.433 µM). For the same compound, the MIC [28] was 0.78 µg/mL (≈ 1.69 µM), the MIC [29] was 3.12 µg/mL (≈ 6.76 µM) and the MIC [30] was 25 to 100 µg/mL (≈ 54.2 to 217 µM). The “inhibition spot diameter in agar diffusion test” value [31] was 6.5 mm, the “inhibition spot diameter in agar diffusion test” value [32] was 4 mm and the “inhibition spot diameter in agar diffusion test” value [33] was 17.5 mm. For the same compound, the “inhibition spot diameter in agar diffusion test” value [34] was 8 mm and the “inhibition spot diameter in agar diffusion test” value [35] was 8 mm.
